This is an account of results in US20050113371A1, “Antifungal agent for topical use” (priority 2002, published 2005).

Like-named read-outs stand apart in the source and are kept apart here. A value given as a limit tells only on which side of the number the result lay.

In data set [1] the test system is Candida albicans. As to the kind of experiment: Antifungal activity on Sabouraud agar medium, MIC and FIC index (Test Examples 1 and 2). The note with it: for FIC index obtained by the combination of amorolfine hydrochloride with another medicine: Test Example 1, amorolfine hydrochloride + medicine at mass ratio 1:1; for MIC: Candida albicans, 48 h, read-out: Minimum inhibitory concentration (MIC). Type of data set: cell-based. Here is the method:
(§1) Amorolfine hydrochloride and each specimen (hereinafter referred to as “medicine”) at a mass ratio of 1:1 were dissolved in dimethyl sulfoxide (DMSO). Two-fold dilution series were prepared with DMSO. In the determination of the antifungal activity, the medicine and the medium were mixed together at a ratio of 1:99.
Sabouraud agar medium (Eiken) was used as a susceptibility determination medium. A microbe suspension containing 10^6 spores/mL of Candida albicans or about 10^6 conidia/mL of ringworm fungus was prepared. 5 μl of the suspension was inoculated on the Sabouraud agar medium containing the medicine with a micro-planter (a product of Sakuma Seisakusho). Candida albicans was cultured for 2 days and the tinea was cultured for 7 days.
The effect obtained by the combination was judged on the basis of the following standards (FIC index): • >2: antagonism • 2>and 1<: additive action • 1>: potentiation
(1) Amorolfine hydrochloride and each specimen (hereinafter referred to as “medicine”) at a mass ratio of 100:1 to 1:100 were dissolved in dimethyl sulfoxide (DMSO). Two-fold dilution series were prepared with DMSO. In the determination of the antifungal activity, the medicine and the medium were mixed together at a ratio of 1:99.
(2) Amorolfine hydrochloride and each specimen (hereinafter referred to as “medicine”) at a mass ratio of 1:3 to 3:1 were dissolved in dimethyl sulfoxide (DMSO). Two-fold dilution series were prepared with DMSO. In the determination of the antifungal activity, the medicine and the medium were mixed together at a ratio of 1:99.
Sabouraud agar medium (Eiken) was used as a susceptibility determination medium. A microbe suspension containing 10^6 spores/mL of Candida albicans or about 10^6 conidia/mL of each of two kinds of ringworm fungus was prepared. 5 μl of the suspension was inoculated on the Sabouraud agar medium with a micro-planter (a product of Sakuma Seisakusho). Candida albicans was cultured for 2 days and the Tinea fungus was cultured for 7 days.

Data set [2] has as its system Trichophyton mentagrophytes. The data set is described as above. Format: cell-based. Conditions: for FIC index obtained by the combination of amorolfine hydrochloride with another medicine: Test Example 1, amorolfine hydrochloride + medicine at mass ratio 1:1; for MIC: Trichophyton mentagrophytes, 168 h, read-out: Minimum inhibitory concentration (MIC). Here is the method:
as §1
(§2) Sabouraud agar medium (Eiken) was used as a susceptibility determination medium. A microbe suspension containing 10^6 spores/mL of Candida albicans or about 10^6 conidia/mL of ringworm fungus was prepared. 5 μl of the suspension was inoculated on the Sabouraud agar medium containing the medicine with a micro-planter (a product of Sakuma Seisakusho). Candida albicans was cultured for 2 days and the tinea was cultured for 7 days. […]

Data set [3] has as its system Trichophyton rubrum. The data set is described as above. Format: cell-based. The note with it: for FIC index obtained by the combination of amorolfine hydrochloride with another medicine: Test Example 1, amorolfine hydrochloride + medicine at mass ratio 1:1; for MIC: Trichophyton rubrum, 168 h, read-out: Minimum inhibitory concentration (MIC). As to the method:
as §1, §2

The conditions of data set [4]: cited from earlier work.
For data set [5] the following is noted: rats, oral; administration from before the pregnancy to the lactation period or perinatal period/lactation period; cited from earlier work.
The conditions of data set [6]: cited from earlier work. The source holds these as a separate data set.
For data set [7] the following is noted: cited from earlier work. This is another data set of the same source.
Data set [8] relates to Trichophyton mentagrophytes TIMM 1189. Kind of data set: Tinea infection model of guinea pigs, culture test (Test Example 3). Type of data set: in vivo. The note with it: 0.75 mass % in polyethylene glycol 400 (combination 1:2), 0.1 mL once a day for 5 days from 3 days after inoculation; culture on 5th day after last application; 10 loci. Here is the method: Amorolfine hydrochloride and each specimen (hereinafter referred to as “medicine”) at a mass ratio of 1:2 were dissolved in polyethylene glycol 400 to obtain a final concentration of 0.75% mass ratio. Each of amorolfine hydrochloride and the medicines was separately dissolved in polyethylene glycol 400 to obtain solutions having the final concentration of 0.75 mass %.
Male Hartley guinea pigs (Japan SLC Co., Ltd.; 6 weeks) were used. In the course of the test, they were kept separately from one another in an isolator (Negative rack, CLEA JAPAN, Inc.). They could freely have a solid food (G standard, Nihon Nosan Kogyo KK) and water.
Trichophyton mentagrophytes TIMM 1189 was cultured on slant Sabouraud glucose agar medium at 27° C. for 14 days. Then, sterilized saline containing 0.05% of Tween 80 was added thereto to obtain conidia. The resultant suspension was filtered through a cell strainer (FALCON Co., Ltd.) to remove large mycelian masses. The number of conidia was counted with hemocytometer. The conidia were diluted to 4×10^7/mL with sterilized saline containing 0.05% of Tween 80 to obtain the conidial suspension for inoculation.
The back of each guinea pig was shaved. Then, a circular inoculation part having a diameter of 2 cm was positioned on both sides of the spinal column. A gummed tape was applied thereto and then peeled. These steps was repeated three times, whereby the hair was pulled out of the skin in both parts and, at the same time, the top of the corneous layer of the skin was peeled off. The remaining hair was completely removed with tweezers. […]
When at least one of the 10 small pieces taken from one inoculated locus of the skin was the positive after the culture, the inoculated locus was judged to be positive. The ratio of positive loci after culture was calculated from the number of the cultured positive pieces in the total 10 inoculated loci in each experiment group.
The number of the cultured positive small pieces in the inoculated portion was scored as will be described below to determine the infection. […]

The conditions of data set [9]: in vivo; cited from earlier work.
The conditions of data set [10]: rabbit, in vivo; cited from earlier work.
The subject of data set [11] is Candida. Conditions: cited from earlier work.
[12] abbreviates: Test Example 2, geometric mean MIC of two strains, cultured 7 days.

`Cc1cccc(N(C)C(=S)Oc2ccc3ccccc3c2)c1` [Tolnaftate]: the “FIC index obtained by the combination of amorolfine hydrochloride with another medicine” value (“FIC index obtained by the combination” below) in [1] (cultured 2 days) is reported as 0.38; in [2] (cultured 7 days) it was 1.25; in [3] (cultured 7 days) it was 0.35.

Take `CCC(C)(C)c1ccc(CC(C)CN2CC(C)OC(C)C2)cc1.Cl` (racemic) [amorolfine hydrochloride, (±)-cis-2,6-dimethyl-4-[3-[4-(1,1-dimethylpropyl)phenyl]-2-methylpropyl]-morpholine monohydrochloride]: the 50% lethal dose (LD50) in [4] (mice, intraperitoneal injection, female) is reported as 239 mg/kg; in [4] (mice, intraperitoneal injection, male), 205 mg/kg; in [4] (mice, intravenous injection, female), 112 mg/kg; in data set [4] (mice, intravenous injection, male), 141 mg/kg; in [4] (mice, oral, female), 2406 mg/kg; in data set [4] (mice, oral, male), 2514 mg/kg. In addition, the LD50 in data set [4] (mice, subcutaneous, male and female) is over 5000 mg/kg; in data set [6] (rats, intraperitoneal injection, female), 465 mg/kg; in data set [6] (rats, intraperitoneal injection, male), 468 mg/kg; in data set [6] (rats, oral, female), 1756 mg/kg; in data set [6] (rats, oral, male) it was 1960 mg/kg; in data set [6] (rats, subcutaneous, male and female) it was over 2000 mg/kg. In addition, the LD50 in [7] (dogs, oral, male and female) is over 1000 mg/kg; in data set [7] (dogs, subcutaneous, male), over 2500 mg/kg. The “dose with an influence on the survival rate of newborn babies” value in data set [5] was “at least 10 mg/kg/day”. For the same compound, the MIC turned out to be 1 mg/L in [1], 0.031 mg/L in data set [2] and 0.016 mg/L in data set [3]. Besides, the “rate of positive loci after culture” value in data set [8] worked out at 100%.

With `N#C/C(=C1/SCC(c2ccccc2Cl)S1)n1ccnc1` (centres unmarked) [Lanoconazole], the “FIC index obtained by the combination” value is recorded as 0.53 in data set [1] (cultured 2 days), 1.00 in data set [2] (cultured 7 days) and 1.25 in data set [3] (cultured 7 days).

Consider `Cc1cc(C2CCCCC2)n(O)c(=O)c1.NCCO` [Ciclopyrox olamine], for which the entries for the “FIC index obtained by the combination” value in data set [1] (cultured 2 days), in data set [2] (cultured 7 days) and in data set [3] (cultured 7 days) were 0.38, 1.0 and 1.0, respectively.

In the case of `CN(Cc1ccc(C(C)(C)C)cc1)Cc1cccc2ccccc12.Cl` [butenafine hydrochloride, N-4-tert-butylbenzyl-N-methyl-1-naphthalenemethylamine hydrochloride], the “toxicity on the reproduction or development” value in data set [9] is recorded as “No toxicity was found”. For the same compound, the LD50 in data set [4] (ICR male and female mice, intravenous injection) was over 140 mg/kg; in data set [4] (ICR male and female mice, oral), over 5000 mg/kg; in [4] (ICR male and female mice, percutaneous), over 800 mg/kg; in data set [4] (ICR male and female mice, subcutaneous), over 200 mg/kg; in data set [6] (Wistar rats, intravenous injection, female) it was at least 100 mg/kg; in data set [6] (Wistar rats, intravenous injection, male), over 100 mg/kg. Further, the LD50 in data set [6] (Wistar rats, oral, male and female) was over 4000 mg/kg; in [6] (Wistar rats, percutaneous, male and female) it was over 1000 mg/kg; in data set [6] (Wistar rats, subcutaneous, male and female), over 150 mg/kg; in data set [7] (Beagle dogs, male, oral), over 5000 mg/kg; in [7] (Beagle dogs, male, percutaneous), over 100 mg/kg. Further, the MIC in data set [1] (Test Example 2, geometric mean MIC of two strains, cultured 2 days) is over 8 mg/L; in data set [2] (setting [12]) it was 0.016 mg/L; in [3] (setting [12]), 0.004 mg/L. The “FIC index obtained by the combination” value came to 0.38 in data set [1] (cultured 2 days), 0.49 in data set [2] (cultured 7 days) and 0.38 in [3] (cultured 7 days). The “Minimum inhibitory concentration (MIC)” value in [1] (Test Example 2, geometric mean MIC of two strains, cultured 2 days, listed as B, hydrochloride) was over 8.0 mg/L. The localized irritation entry in data set [10] is recorded as “weak”. The “antifungal effect on Candida” value in data set [11] is on record as “ineffective”. In data set [8], the “rate of positive loci after culture” value stood at 100%.

What is called LD50 is the dose at which mortality reaches 50%.
